Reference: paper PMC8279981, “A first-in-human, phase 1 study of the NEDD8 activating enzyme E1 inhibitor TAS4464 in patients with advanced solid tumors” (Investigational New Drugs, 2021)

What was measured:
[1] = system: nuclear factor κB (NFκB) activation; parameters: method as in PMID 31583781; conditions: multiple myeloma models; cited from earlier work
[2] = system: advanced or metastatic solid tumors; test: Phase 1 study: clinical response (RECIST v1.1), PFS; type: in vivo, human
Source text: Secondary objectives included assessment of AEs, treatment-related AEs, objective response rate (ORR), disease control rate (DCR), progression-free survival (PFS), and PK, pharmacodynamic, and pharmacogenomic (PGx) parameters with TAS4464 administration. The National Cancer Institute Common Terminology Criteria for Adverse Events (NCI CTCAE) v4.03 [17] was used to assess the severity of AEs. The Medical Dictionary for Regulatory Activities (MedDRA) version 22.1 was used to classify AEs. RECIST v1.1 [16] was used to determine clinical response, and all computed tomography images were assessed by the physician at the study site after completion of the imaging procedure. The ORR was defined as the percentage of patients with the best overall response of complete response (CR) or partial response (PR). The DCR was the percentage of patients with a best overall response of CR, PR, stable disease (SD), or non-CR/non-progressive disease (PD). PFS was defined as the time from the date of enrollment until the date of investigator-assessed radiological disease progression or death due to any cause, whichever occurred first. The analysis populations included in the study are summarized in the Supplementary Appendix. DLTs were recorded by incidence and 95% confidence intervals (CI). Median PFS and 95% CIs were calculated using Kaplan–Meier methodology. Best overall response was tabulated, and the ORR and DCR with 95% CIs were calculated by dose level. PK parameters were evaluated using non-compartmental methods. For the pharmacodynamic parameter of cullin-NEDD8 in PBMC, summary statistics and a scatter plot of the percentage change from baseline were produced. Missing data were not imputed. […] SAS software v9.4 (SAS Institute Inc., Cary NC, USA) was used for all statistical processing.

dog = system: dog; parameters: method as in unpublished data; conditions: TAS4464 without a N,N-dimethylacetamide group; ref unpublished data; cited from earlier work
[3] = system: p27^Kip1 protein expression; test: p27^Kip1 immunohistochemistry in biopsy tumor specimens; type: in vivo, human; conditions: Day 2 of Cycle 1, three patients; data not shown
Method: Assessment of pharmacodynamics included evaluation of cullin-NEDD8, p27^Kip1 protein expression, and cytokines in peripheral blood samples. Expression of cullin-NEDD8 protein in peripheral blood mononuclear cells (PBMC) was analyzed using an enzyme-linked immunosorbent assay (ELISA). For the weekly dosing cohorts, changes from baseline in cullin-NEDD8 complexes in the PBMC on Day 1 and Day 2 of Cycle 1 as measured by ELISA were evaluated. For the weekly dosing with lead-in period cohorts, changes from baseline in cullin-NEDD8 complexes on Day 2 were evaluated. Expression of p27^Kip1 protein (cyclin-dependent kinase inhibitor 1B), a substrate of CRL, was determined by immunohistochemistry (IHC). p27^Kip1 IHC was performed on biopsy tumor specimens collected at baseline and Day 2 of Cycle 1, and their staining intensities were assessed using H-Scoring, with the scores compared between baseline and Day 2 of Cycle 1. […]

[4] = weekly dosing Level 1 (10 mg/m^2), n = 1
[5] = weekly dosing Level 2 (20 mg/m^2), n = 1
[6] = weekly dosing Level 3 (40 mg/m^2), n = 3
[7] = weekly dosing Level 4 (56 mg/m^2), n = 5
[8] = weekly dosing with lead-in Level 3 (20 → 40 mg/m^2), n = 3
[9] = weekly dosing with lead-in Level 4 (20 → 56 mg/m^2), n = 3
[10] = weekly dosing with lead-in Total, n = 6

SMILES: CCOc1cccc(F)c1C#Cc1cn([C@@H]2O[C@H](CNS(N)(=O)=O)[C@@H](O)[C@H]2O)c2ncnc(N)c12 [TAS4464]
- mechanism of antitumor activity [1]: inhibition of nuclear factor κB (NFκB) activation
- Disease control rate (CR + PR + SD + non-CR/non-PD) ([2]; Total, N = 16): 5 (31.3) n (%)
- Not evaluable (best overall response) ([2]; Total, N = 16): 1 (6.3) n (%)
- PD (best overall response) ([2]; Total, N = 16): 10 (62.5) n (%)
- Response rate (CR + PR) ([2]; Total, N = 16): 0 n (%)
- Disease control rate (CR + PR + SD + non-CR/non-PD) [2, 4]: 1 (100.0) n (%)
- Not evaluable (best overall response) [2, 4]: 0 n (%)
- PD (best overall response) [2, 4]: 0 n (%)
- Response rate (CR + PR) [2, 4]: 0 n (%)
- Disease control rate (CR + PR + SD + non-CR/non-PD) [2, 5]: 1 (100.0) n (%)
- Not evaluable (best overall response) [2, 5]: 0 n (%)
- PD (best overall response) [2, 5]: 0 n (%)
- Response rate (CR + PR) [2, 5]: 0 n (%)
- Disease control rate (CR + PR + SD + non-CR/non-PD) [2, 6]: 1 (33.3) n (%)
- Not evaluable (best overall response) [2, 6]: 0 n (%)
- PD (best overall response) [2, 6]: 2 (66.7) n (%)
- Response rate (CR + PR) [2, 6]: 0 n (%)
- Disease control rate (CR + PR + SD + non-CR/non-PD) [2, 7]: 2 (40.0) n (%)
- Not evaluable (best overall response) [2, 7]: 0 n (%)
- PD (best overall response) [2, 7]: 3 (60.0) n (%)
- Response rate (CR + PR) [2, 7]: 0 n (%)
- Disease control rate (CR + PR + SD + non-CR/non-PD) ([2]; weekly dosing Total, N = 10): 5 (50.0) n (%)
- Not evaluable (best overall response) ([2]; weekly dosing Total, N = 10): 0 n (%)
- PD (best overall response) ([2]; weekly dosing Total, N = 10): 5 (50.0) n (%)
- Response rate (CR + PR) ([2]; weekly dosing Total, N = 10): 0 n (%)
- best overall response ([2]; weekly dosing cohort): no patients showed a CR or PR
- DCR ([2]; weekly dosing cohort, 10 patients, 95% CI 18.7–81.3): 50.0%
- median PFS ([2]; weekly dosing cohort, 95% CI 1.0–7.0): 3.7 months
- Disease control rate (CR + PR + SD + non-CR/non-PD) [2, 8]: 0 n (%)
- Not evaluable (best overall response) [2, 8]: 0 n (%)
- PD (best overall response) [2, 8]: 3 (100.0) n (%)
- Response rate (CR + PR) [2, 8]: 0 n (%)
- Disease control rate (CR + PR + SD + non-CR/non-PD) [2, 9]: 0 n (%)
- Not evaluable (best overall response) [2, 9]: 1 (33.3) n (%)
- PD (best overall response) [2, 9]: 2 (66.7) n (%)
- Response rate (CR + PR) [2, 9]: 0 n (%)
- Disease control rate (CR + PR + SD + non-CR/non-PD) [2, 10]: 0 n (%)
- Not evaluable (best overall response) [2, 10]: 1 (16.7) n (%)
- PD (best overall response) [2, 10]: 5 (83.3) n (%)
- Response rate (CR + PR) [2, 10]: 0 n (%)
- best overall response ([2]; weekly dosing with lead-in period cohort): no patients showed CR, PR, or SD
- median PFS ([2]; weekly dosing with lead-in period cohort, 95% CI 0.5–2.9): 1.5 months
- toxic liver findings (dog): toxic liver findings were not observed
- expression of p27^Kip1 in tumor specimens versus baseline [3]: almost unchanged or decreased
